Assay results from patent US11014912B2, “Cyanopyrrolidine derivatives with activity as inhibitors of USP30” (MISSION THERAPEUTICS LIMITED, priority 2016, dated 2021).
pIC50: −log10 of the molar value.

Target: USP30 (Homo sapiens (Human), UniProt Q70CQ3)
Experiment: USP30 biochemical IC50 assay
Details: fluorescence polarisation, TAMRA labelled peptide linked to ubiquitin substrate; enzyme and compound incubated 30 min at room temp; read after 2 h; read-out: IC50 range
Experimental: USP30 Biochemical IC50 Assay
Dilution plates were prepared at 21 times the final concentration (2100 μM for a final concentration of 100 μM) in 50% DMSO in a 96-well polypropylene V-bottom plate (Greiner #651201). A typical 8-point dilution series would be 100, 30, 10, 3, 1, 0.3, 0.1, 0.03 μM final. Reactions were performed in duplicate in black 384 well plates (small volume, Greiner 784076) in a final reaction volume of 21 μl. Either 1 μl of 50% DMSO or diluted compound was added to the plate. USP30 was diluted in reaction buffer (40 mM Tris, pH 7.5, 0.005% Tween 20, 0.5 mg/ml BSA, 5 mM beta-mercaptoethanol) to the equivalent of 0.05 μl/well and 10 μl of diluted USP30 was added to the compound. Enzyme and compound were incubated for 30 min at room temp. Reactions were initiated by the addition of 50 nM of TAMRA labelled peptide linked to ubiquitin via an iso-peptide bond as fluorescence polarisation substrate. Reactions were read immediately after addition of substrate and following a 2 h incubation at room temperature. Readings were performed on a Pherastar Plus (BMG Labtech). A Excitation 540 nm; A Emission 590 nm.

Chain of USP30 (Q70CQ3 57-517): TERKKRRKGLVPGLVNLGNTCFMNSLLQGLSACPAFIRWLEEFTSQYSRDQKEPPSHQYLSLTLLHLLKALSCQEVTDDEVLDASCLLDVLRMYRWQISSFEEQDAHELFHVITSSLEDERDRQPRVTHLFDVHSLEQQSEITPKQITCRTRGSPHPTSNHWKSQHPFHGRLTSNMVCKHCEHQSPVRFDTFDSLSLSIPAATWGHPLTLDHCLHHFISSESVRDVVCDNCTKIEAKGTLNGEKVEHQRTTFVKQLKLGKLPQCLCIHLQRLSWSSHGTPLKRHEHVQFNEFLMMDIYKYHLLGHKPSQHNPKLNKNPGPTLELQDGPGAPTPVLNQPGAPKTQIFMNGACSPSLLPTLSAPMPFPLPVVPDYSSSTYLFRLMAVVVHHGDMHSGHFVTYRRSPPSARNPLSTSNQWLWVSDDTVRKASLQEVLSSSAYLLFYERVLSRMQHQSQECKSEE

Row | SMILES | pIC50
1 | N#CN1CCC(=CC(=O)Nc2cnc3ccccc3c2)C1 [Example 23, 2-(1-Cyanopyrrolidin-3-ylidene)-N-(quinolin-3-yl)acetamide] | 6.00 to 7.00
2 | N#CN1CCC(CC(=O)Nc2cc3ccccn3n2)C1 (stereo not shown) [Example 44, 2-(1-cyanopyrrolidin-3-yl)-N-(pyrazolo[1,5-a]pyridin-2-yl)acetamide] | 5.00 to 6.00
3 | CN(Cc1cccc(-c2ccncc2)c1)C(=O)C=C1CCN(C#N)C1 [Example 26, 2-(1-Cyanopyrrolidin-3-ylidene)-N-methyl-N-(3-(pyridin-4-yl)benzyl)acetamide] | 6.00 to 7.00
4 | N#CN1CCC(CC(=O)Nc2cccc(Cl)c2)C1 (stereo not shown) [Example 2, N-(3-Chlorophenyl)-2-(1-cyanopyrrolidin-3-yl)acetamide] | 6.00 to 7.00
5 | Cc1noc(C)c1-c1ccc2nc(NC(=O)CC3CCN(C#N)C3)cn2c1 (stereo not shown) [Example 16, 2-(1-Cyanopyrrolidin-3-yl)-N-(6-(3,5-dimethylisoxazol-4-yl)imidazo[1,2-a]pyridin-2-yl)acetamide] | 5.00 to 6.00
6 | N#Cc1cccc(-c2cc(NC(=O)C[C@H]3CCN(C#N)C3)on2)c1 [Example 51, (R)-N-(3-(3-cyanophenyl)isoxazol-5-yl)-2-(1-cyanopyrrolidin-3-yl)acetamide] | 8.00 to 9.00
7 | N#Cc1ccc(C2CN(C(=O)C[C@@H]3CCN(C#N)C3)C2)cc1 [Example 52, (S)-3-(2-(3-(4-cyanophenyl)azetidin-1-yl)-2-oxoethyl)pyrrolidine-1-carbonitrile] | 6.00 to 7.00
8 | N#CN1CCC(CC(=O)N2CC(Oc3ccccc3)C2)C1 (stereo not shown) [Example 12, 3-(2-Oxo-2-(3-phenoxyazetidin-1-yl)ethyl)pyrrolidine-1-carbonitrile] | 6.00 to 7.00
9 | N#CN1CCC(CC(=O)Nc2cc(C(F)(F)F)ccn2)C1 (stereo not shown) [Example 45, 2-(1-cyanopyrrolidin-3-yl)-N-(4-(trifluoromethyl)pyridin-2-yl)acetamide] | 6.00 to 7.00
10 | N#CN1CCC(CC(=O)Nc2ccc(C(F)(F)F)nc2)C1 (stereo not shown) [Example 4, 2-(1-Cyanopyrrolidin-3-yl)-N-(6-(trifluoromethyl)pyridin-3-yl)acetamide] | 5.00 to 6.00
11 | N#CN1CC[C@H](CC(=O)Nc2cc(-c3ccc(Cl)cc3)no2)C1 [Example 35, (R)—N-(3-(4-Chlorophenyl)isoxazol-5-yl)-2-(1-cyanopyrrolidin-3-yl)acetamide] | 6.00 to 7.00
12 | CC(C(=O)N1CC(c2ccc(C#N)cc2)C1)[C@@H]1CCN(C#N)C1 (single isomer, unassigned) [Example 62] | 6.00 to 7.00
13 | N#CN1CCC(=CC(=O)N2CC(c3ccccc3)C2)C1 [Example 18, 3-(2-Oxo-2-(3-phenylazetidin-1-yl)ethylidene)pyrrolidine-1-carbonitrile] | 6.00 to 7.00
14 | N#CN1CC[C@H](CC(=O)Nc2cc(-c3cccc(OC(F)(F)F)c3)no2)C1 [Example 54, (R)-2-(1-cyanopyrrolidin-3-yl)-N-(3-(3-(trifluoromethoxy)phenyl)isoxazol-5-yl)acetamide] | 8.00 to 9.00
15 | COc1cccc(-c2cc(NC(=O)C[C@@H]3CCN(C#N)C3)on2)c1 [Example 37, (S)—N-(3-(3-Methoxyphenyl)isoxazol-5-yl)-2-(1-cyanopyrrolidin-3-yl)acetamide] | 6.00 to 7.00
16 | N#CN1CCC(CC(=O)Nc2nc3cc(Cl)ccc3o2)C1 (stereo not shown) [Example 8, N-(5-Chlorobenzo[d]oxazol-2-yl)-2-(1-cyanopyrrolidin-3-yl)acetamide] | 6.00 to 7.00
17 | N#CN1CC[C@@H](CC(=O)Nc2cc(-c3ccc(Cl)cc3)no2)C1 [Example 34, (S)—N-(3-(4-Chlorophenyl)isoxazol-5-yl)-2-(1-cyanopyrrolidin-3-yl)acetamide] | 6.00 to 7.00
18 | N#CN1CCC(CC(=O)Nc2nnc(-c3ccccc3)s2)C1 (stereo not shown) [Example 41, 2-(1-cyanopyrrolidin-3-yl)-N-(5-phenyl-1,3,4-thiadiazol-2-yl)acetamide] | 6.00 to 7.00
19 | COc1cccc(C2CN(C(=O)C[C@@H]3CCN(C#N)C3)C2)c1F [Example 68, (S)-3-(2-(3-(2-fluoro-3-methoxyphenyl)azetidin-1-yl)-2-oxoethyl)pyrrolidine-1-carbonitrile] | 7.00 to 8.00
